These are literature values, as cited in patent US9623004B2, “Administration of a therapeutic amount of genistein to mitigate erectile dysfunction resulting from radiation therapy for prostate cancer only throughout a defined administration period commencing shortly before and concluding after radiation therapy” (Humanetics Corporation, priority 2013, dated 2017).

Assay in series [1]: not given
This is another data set of the same source.

Take `O=c1c(-c2ccc(O)cc2)coc2cc(O)cc(O)c12` [Genistein, 5,7-dihydroxy-3-(4-hydroxyphenyl)-chromen-4-one]: the “beneficial effects in other clinical trials” value is given as “no beneficial effects”. Further, the solubility in water entry in series [1] is on record as “virtually insoluble in water”.
